# Measurements: PubChem BioAssay AID1845215 (Molecular Pharmacology Branch, DTP, NCI, 2023)
# Tested on: SW 1271 complex tumor spheroid viability
# Assay: Anticancer human tumor SW 1271 cell line growth inhibition;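 also: spheroids exposed to agents for seven days before readout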;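 as to viability, T/C: percent of DMSO vehicle control luminescence so 100% = vehicle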
# Settings: for IC50: curve of first compound; for viability, T/C: stronger effect = lower value
# Method in brief: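 Single agents and combinations were tested on spheroids built from tumor cells plus HUVEC and hMSC, at half-log dilutions starting at or near clinical Cmax, else 10 microM; final DMSO 0.25% (v/v).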
# [1] = second compound 30 pM, first compound 0.0316 µM
# [2] = second compound 30 pM, first compound 0.1 µM
# [3] = second compound 30 pM, first compound 0.316 µM
# [4] = second compound 30 pM, first compound 1 µM
# [5] = second compound 30 pM, first compound 3.16 µM
# [6] = second compound 30 pM, first compound 10 µM
# [7] = second compound 94.9 pM, first compound 0.0316 µM
# [8] = second compound 94.9 pM, first compound 0.1 µM
# [9] = second compound 94.9 pM, first compound 0.316 µM
# [10] = second compound 94.9 pM, first compound 1 µM
# [11] = second compound 94.9 pM, first compound 3.16 µM
# [12] = second compound 94.9 pM, first compound 10 µM
# [13] = second compound 0.0003 µM, first compound 0.0316 µM
# [14] = second compound 0.0003 µM, first compound 0.1 µM
# [15] = second compound 0.0003 µM, first compound 0.316 µM
# [16] = second compound 0.0003 µM, first compound 1 µM
# [17] = second compound 0.0003 µM, first compound 3.16 µM
# [18] = second compound 0.0003 µM, first compound 10 µM
# [19] = second compound 0.000949 µM, first compound 0.0316 µM
# [20] = second compound 0.000949 µM, first compound 0.1 µM
# [21] = second compound 0.000949 µM, first compound 0.316 µM
# [22] = second compound 0.000949 µM, first compound 1 µM
# [23] = second compound 0.000949 µM, first compound 3.16 µM
# [24] = second compound 0.000949 µM, first compound 10 µM
# [25] = second compound 0.003 µM, first compound 0.0316 µM
# [26] = second compound 0.003 µM, first compound 0.1 µM
# [27] = second compound 0.003 µM, first compound 0.316 µM
# [28] = second compound 0.003 µM, first compound 1 µM
# [29] = second compound 0.003 µM, first compound 3.16 µM
# [30] = second compound 0.003 µM, first compound 10 µM
# [31] = second compound 1 µM, first compound 0.0949 µM
# [32] = second compound 1 µM, first compound 0.3 µM
# [33] = second compound 1 µM, first compound 0.949 µM
# [34] = second compound 1 µM, first compound 3 µM
# [35] = second compound 3.16 µM, first compound 0.0949 µM
# [36] = second compound 3.16 µM, first compound 0.3 µM
# [37] = second compound 3.16 µM, first compound 0.949 µM
# [38] = second compound 3.16 µM, first compound 3 µM
# [39] = second compound 10 µM, first compound 0.0949 µM
# [40] = second compound 10 µM, first compound 0.3 µM
# [41] = second compound 10 µM, first compound 0.949 µM
# [42] = second compound 10 µM, first compound 3 µM
# [43] = second compound 31.6 µM, first compound 0.0949 µM
# [44] = second compound 31.6 µM, first compound 0.3 µM
# [45] = second compound 31.6 µM, first compound 0.949 µM
# [46] = second compound 31.6 µM, first compound 3 µM
# [47] = second compound 100 µM, first compound 0.0949 µM
# [48] = second compound 100 µM, first compound 0.3 µM
# [49] = second compound 100 µM, first compound 0.949 µM
# [50] = second compound 100 µM, first compound 3 µM
smiles,measurement,setting,value
CC(C)n1c(=O)n(C)c2cnc3cc(F)c(-c4ccc(OCCCN5CCCCC5)nc4)cc3c21 + COc1cc2c(cc1O)CCNC21CSC2c3c(OC(C)=O)c(C)c4c(c3C(COC1=O)N1C(O)C3Cc5cc(C)c(OC)c(O)c5C(C21)N3C)OCO4,IC50,second compound 30 pM,931 nM
same,IC50,second compound 94.9 pM,< 31.6 nM
same,IC50,second compound 0.0003 µM,< 31.6 nM
same,IC50,second compound 0.000949 µM,< 31.6 nM
same,IC50,second compound 0.003 µM,< 31.6 nM
same,"viability, T/C",[1],65%
same,"viability, T/C",[2],57.5%
same,"viability, T/C",[3],53.4%
same,"viability, T/C",[4],45.6%
same,"viability, T/C",[5],51.8%
same,"viability, T/C",[6],29.3%
same,"viability, T/C",[7],29.6%
same,"viability, T/C",[8],28.7%
same,"viability, T/C",[9],22.3%
same,"viability, T/C",[10],24.2%
same,"viability, T/C",[11],20.9%
same,"viability, T/C",[12],15.8%
same,"viability, T/C",[13],28.5%
same,"viability, T/C",[14],33.3%
same,"viability, T/C",[15],24.7%
same,"viability, T/C",[16],24.2%
same,"viability, T/C",[17],19.1%
same,"viability, T/C",[18],12.9%
same,"viability, T/C",[19],4.24%
same,"viability, T/C",[20],3.92%
same,"viability, T/C",[21],2.81%
same,"viability, T/C",[22],1.61%
same,"viability, T/C",[23],1.37%
same,"viability, T/C",[24],1.05%
same,"viability, T/C",[25],0.12%
same,"viability, T/C",[26],0.11%
same,"viability, T/C",[27],0.09%
same,"viability, T/C",[28],0.1%
same,"viability, T/C",[29],0.1%
same,"viability, T/C",[30],0.16%
COc1ccc([C@@H](O)c2cc(-c3ncnc4cc(N5CCOCC5)ccc34)c(F)cc2Cl)nn1 + COc1cc2c(cc1O)CCNC21CSC2c3c(OC(C)=O)c(C)c4c(c3C(COC1=O)N1C(O)C3Cc5cc(C)c(OC)c(O)c5C(C21)N3C)OCO4,IC50,second compound 30 pM,1080 nM
same,IC50,second compound 94.9 pM,168 nM
same,IC50,second compound 0.0003 µM,< 31.6 nM
same,IC50,second compound 0.000949 µM,< 31.6 nM
same,IC50,second compound 0.003 µM,< 31.6 nM
same,"viability, T/C",[1],84.9%
same,"viability, T/C",[2],86.9%
same,"viability, T/C",[3],77.4%
same,"viability, T/C",[4],51.1%
same,"viability, T/C",[5],21.7%
same,"viability, T/C",[6],6.57%
same,"viability, T/C",[7],71.1%
same,"viability, T/C",[8],51.8%
same,"viability, T/C",[9],39.6%
same,"viability, T/C",[10],33.5%
same,"viability, T/C",[11],25.9%
same,"viability, T/C",[12],4.84%
same,"viability, T/C",[13],35.7%
same,"viability, T/C",[14],33.3%
same,"viability, T/C",[15],31.1%
same,"viability, T/C",[16],17.6%
same,"viability, T/C",[17],1.97%
same,"viability, T/C",[18],0.12%
same,"viability, T/C",[19],2.95%
same,"viability, T/C",[20],2.6%
same,"viability, T/C",[21],1.24%
same,"viability, T/C",[22],0.04%
same,"viability, T/C",[23],0.02%
same,"viability, T/C",[24],0.1%
same,"viability, T/C",[25],0.1%
same,"viability, T/C",[26],0.08%
same,"viability, T/C",[27],0.08%
same,"viability, T/C",[28],0.08%
same,"viability, T/C",[29],0.09%
same,"viability, T/C",[30],0.15%
Cn1ncnc1[C@H]1c2n[nH]c(=O)c3cc(F)cc(c23)N[C@@H]1c1ccc(F)cc1 + Cn1nnc2c(C(N)=O)ncn2c1=O,IC50,second compound 1 µM,9.72 nM
same,IC50,second compound 3.16 µM,< 9.49 nM
same,IC50,second compound 10 µM,< 9.49 nM
same,IC50,second compound 31.6 µM,< 9.49 nM
same,IC50,second compound 100 µM,< 9.49 nM
same,"viability, T/C","second compound 1 µM, first compound 0.00949 µM",50.5%
same,"viability, T/C","second compound 1 µM, first compound 0.03 µM",28.1%
same,"viability, T/C",[31],23.4%
same,"viability, T/C",[32],26.2%
same,"viability, T/C",[33],25.8%
same,"viability, T/C",[34],20.7%
same,"viability, T/C","second compound 3.16 µM, first compound 0.00949 µM",41.6%
same,"viability, T/C","second compound 3.16 µM, first compound 0.03 µM",25.2%
same,"viability, T/C",[35],29.2%
same,"viability, T/C",[36],22.1%
same,"viability, T/C",[37],28.2%
same,"viability, T/C",[38],22%
same,"viability, T/C","second compound 10 µM, first compound 0.00949 µM",32.9%
same,"viability, T/C","second compound 10 µM, first compound 0.03 µM",25.5%
same,"viability, T/C",[39],25.6%
same,"viability, T/C",[40],28.6%
same,"viability, T/C",[41],29.5%
same,"viability, T/C",[42],20.1%
same,"viability, T/C","second compound 31.6 µM, first compound 0.00949 µM",27.1%
same,"viability, T/C","second compound 31.6 µM, first compound 0.03 µM",27.1%
same,"viability, T/C",[43],29.3%
same,"viability, T/C",[44],28.5%
same,"viability, T/C",[45],30.5%
same,"viability, T/C",[46],22%
same,"viability, T/C","second compound 100 µM, first compound 0.00949 µM",29.8%
same,"viability, T/C","second compound 100 µM, first compound 0.03 µM",29.9%
same,"viability, T/C",[47],32.1%
same,"viability, T/C",[48],32.8%
same,"viability, T/C",[49],28.7%
same,"viability, T/C",[50],19.9%
O=C(c1cc(Cc2n[nH]c(=O)c3ccccc23)ccc1F)N1CCN(C(=O)C2CC2)CC1 + Cn1nnc2c(C(N)=O)ncn2c1=O,IC50,second compound 1 µM,2200 nM
same,IC50,second compound 3.16 µM,2110 nM
same,IC50,second compound 10 µM,1640 nM
same,IC50,second compound 31.6 µM,443 nM
same,IC50,second compound 100 µM,< 94.9 nM
same,"viability, T/C",[31],95.3%
same,"viability, T/C",[32],78.7%
same,"viability, T/C",[33],69.1%
same,"viability, T/C",[34],45.7%
same,"viability, T/C","second compound 1 µM, first compound 9.49 µM",24.4%
same,"viability, T/C","second compound 1 µM, first compound 30 µM",32.5%
same,"viability, T/C",[35],86.3%
same,"viability, T/C",[36],82.2%
same,"viability, T/C",[37],70.7%
same,"viability, T/C",[38],41%
same,"viability, T/C","second compound 3.16 µM, first compound 9.49 µM",33%
same,"viability, T/C","second compound 3.16 µM, first compound 30 µM",34.4%
same,"viability, T/C",[39],95.6%
same,"viability, T/C",[40],86.2%
same,"viability, T/C",[41],63.2%
same,"viability, T/C",[42],34.5%
same,"viability, T/C","second compound 10 µM, first compound 9.49 µM",34.4%
same,"viability, T/C","second compound 10 µM, first compound 30 µM",27%
same,"viability, T/C",[43],82.5%
same,"viability, T/C",[44],58.1%
same,"viability, T/C",[45],33.9%
same,"viability, T/C",[46],33.1%
same,"viability, T/C","second compound 31.6 µM, first compound 9.49 µM",33.5%
same,"viability, T/C","second compound 31.6 µM, first compound 30 µM",27.6%
same,"viability, T/C",[47],35.1%
same,"viability, T/C",[48],26.4%
same,"viability, T/C",[49],29%
same,"viability, T/C",[50],32.2%
same,"viability, T/C","second compound 100 µM, first compound 9.49 µM",28.8%
same,"viability, T/C","second compound 100 µM, first compound 30 µM",28.2%
